Results on eight compounds are retold here after patent US10597387B2, “Methods to treat lymphoplasmacytic lymphoma” (Dana-Farber Cancer Institute, Inc., priority 2013, dated 2020).

In one experiment the target is BTK (Homo sapiens (Human), UniProt Q06187). The experiment can be described thus: Invitrogen Select Screening kinase assay. The format is biochemical. The following applies: in vitro. An excerpt:
The in vitro activity of the compounds described herein in inhibiting TAK1, HCK, and other kinases were obtained using an Invitrogen Select Screening assay as known in the art. The IC50 values determined from this assay are shown below.

The subject of another experiment is BCWM.1. In words: CellTiter-Glo cell viability assay. The format is cell-based. The method, then:
(§1) CellTiter-Glo® Luminescent cell viability assay (Promega) was used to assess cell survival following treatment with the compounds described. Cells were seeded into 384 well plates with the EL406 Combination Washer Dispenser (BioTek Instruments, Inc.), and the compounds were injected into the cells culture media with the JANUS Automated Workstation (PerkinElmer Inc.). Cells were treated with a series diluted inhibitors (20˜0.04 μM) for 72 hours at 37° C. Luminescent measurement is performed using the 2104 Envision® Multilabel Reader (PerkinElmer Inc.).
(In general: In ATP-based viability assays light output follows the ATP content of the culture.)

A further experiment has as its system MWCL-1. The experiment can be described thus: CellTiter-Glo cell viability assay. Format: cell-based. As to the method: as §1
Another experiment deals with OCI-Ly19. In words: CellTiter-Glo cell viability assay. The note with it: Homo sapiens, 72 hours. The format is cell-based. The method, then:
as §1

The next experiment deals with OCI-Ly3. The experiment can be described thus: CellTiter-Glo cell viability assay. Format: cell-based. As to the method:
as §1

In another experiment the test system is Ramos. In words: CellTiter-Glo cell viability assay. The format is cell-based. The note with it: 72 hours. As to the method: as §1
In another experiment the test system is RPCIWM-1. The experiment can be described thus: CellTiter-Glo cell viability assay. The note with it: 72 hours. Format: cell-based. The method, then:
as §1

The target in the next experiment is HCK (Homo sapiens (Human), UniProt P08631). The experiment can be described thus: Invitrogen Select Screening kinase assay. The format is biochemical. The note with it: in vitro, read-out: HCK IC50 (nM) Inv.

pEC50, pIC50: −log10 of the molar value.

Sequence of BTK (Q06187 whole entry): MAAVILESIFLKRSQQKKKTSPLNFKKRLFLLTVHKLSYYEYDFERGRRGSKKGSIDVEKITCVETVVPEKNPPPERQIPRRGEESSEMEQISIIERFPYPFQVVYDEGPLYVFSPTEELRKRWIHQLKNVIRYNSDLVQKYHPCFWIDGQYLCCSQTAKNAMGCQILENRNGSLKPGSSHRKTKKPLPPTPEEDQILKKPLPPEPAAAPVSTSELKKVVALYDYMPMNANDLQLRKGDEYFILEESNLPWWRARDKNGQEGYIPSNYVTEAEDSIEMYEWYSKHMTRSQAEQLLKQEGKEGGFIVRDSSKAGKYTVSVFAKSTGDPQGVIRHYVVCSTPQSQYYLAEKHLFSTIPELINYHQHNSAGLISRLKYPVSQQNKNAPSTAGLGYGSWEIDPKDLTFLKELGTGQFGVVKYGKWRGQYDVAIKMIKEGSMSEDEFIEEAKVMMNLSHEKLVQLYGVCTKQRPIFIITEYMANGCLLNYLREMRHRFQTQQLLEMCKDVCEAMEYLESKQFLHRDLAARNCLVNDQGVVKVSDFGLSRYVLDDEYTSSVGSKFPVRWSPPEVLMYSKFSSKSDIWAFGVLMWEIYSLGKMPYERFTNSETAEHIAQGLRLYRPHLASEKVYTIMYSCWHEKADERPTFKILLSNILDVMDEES
Sequence of HCK (P08631 whole entry): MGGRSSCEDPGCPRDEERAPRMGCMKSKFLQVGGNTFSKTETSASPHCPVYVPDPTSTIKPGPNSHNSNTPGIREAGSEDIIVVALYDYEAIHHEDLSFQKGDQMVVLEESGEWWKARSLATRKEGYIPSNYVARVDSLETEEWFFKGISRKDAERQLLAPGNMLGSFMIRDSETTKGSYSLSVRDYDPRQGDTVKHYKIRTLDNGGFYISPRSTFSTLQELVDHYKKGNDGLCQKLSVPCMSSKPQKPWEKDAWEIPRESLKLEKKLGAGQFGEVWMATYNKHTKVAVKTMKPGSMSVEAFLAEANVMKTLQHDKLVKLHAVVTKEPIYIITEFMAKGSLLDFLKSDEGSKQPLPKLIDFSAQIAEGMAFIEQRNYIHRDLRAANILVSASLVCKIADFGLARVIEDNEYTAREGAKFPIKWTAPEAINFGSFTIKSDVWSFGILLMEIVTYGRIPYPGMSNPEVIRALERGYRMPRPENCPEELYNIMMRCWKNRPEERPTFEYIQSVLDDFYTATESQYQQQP

As for `CCN1CCN(Cc2ccc(C(=O)Nc3ccc(C)c(NC(=O)c4cncc(-c5cccs5)c4)c3)cc2C(F)(F)F)CC1` [I-1, N-(5-(4-((4-ethylpiperazin-1-yl)methyl)-3-(trifluoromethyl)benzamido)-2-methylphenyl)-5-(thiophen-2-yl)nicotinamide], on BTK, the pIC50 (in general, the negative decadic logarithm of the IC50, by convention in mol/L) is 7.64. Also, the pEC50 (as a rule, −log10 of the EC50, conventionally taken in molar units) was 7.42 with BCWM.1 (BCWM1, 72 h); 6.34 in the experiment on MWCL-1 (72 h); 6.26 with OCI-Ly19; 5.54 in the experiment on OCI-Ly3 (Homo sapiens, OCI-Ly3, 72 h); 5.38 in the experiment with Ramos (Homo sapiens, Ramos).
In the case of `Cc1cn(-c2cc(NC(=O)c3ccc(C)c(NC(=O)c4cncc(-c5cccs5)c4)c3)cc(C(F)(F)F)c2)cn1` [I-3, N-(2-methyl-5-((3-(4-methyl-1H-imidazol-1-yl)-5-(trifluoromethyl)phenyl)carbamoyl)phenyl)-5-(thiophen-2-yl)nicotinamide], on BTK, the pIC50 is 6.71. Besides, the negative-log EC50 (pEC50) with BCWM.1 (BCWM1, 72 h) was 6.85; in the experiment with MWCL-1 (72 h), 6.45; with OCI-Ly19 it was 6.29; with OCI-Ly3 (Homo sapiens, OCI-Ly3, 72 h), 6.39; with RPCIWM-1, 6.14; with Ramos (Homo sapiens, Ramos), 6.26.
Compound `Cc1ccc(C(=O)Nc2cc(N3CCN(C)CC3)cc(C(F)(F)F)c2)cc1NC(=O)c1cncc(-c2cccs2)c1` [I-4, N-(2-methyl-5-((3-(4-methylpiperazin-1-yl)-5-(trifluoromethyl)phenyl)carbamoyl)phenyl)-5-(thiophen-2-yl)nicotinamide] showed a negative logarithm of the IC50 (pIC50) at BTK of 6.34.
At BTK, `CCN1CCN(c2ccc(NC(=O)c3ccc(C)c(NC(=O)c4cncc(-c5cccs5)c4)c3)cc2C(F)(F)F)CC1` [I-5, N-(5-((4-(4-ethylpiperazin-1-yl)-3-(trifluoromethyl)phenyl)carbamoyl)-2-methylphenyl)-5-(thiophen-2-yl)nicotinamide] had a negative logarithm of the IC50 (pIC50) of 5.41. Besides, the pEC50 in the experiment with BCWM.1 (BCWM1, 72 h) was 6.44; with MWCL-1 (72 h), 5.96; with OCI-Ly19, 5.81; in the experiment with OCI-Ly3 (Homo sapiens, OCI-Ly3, 72 h) it was 5.67; in the experiment with RPCIWM-1 it was 10.70; with Ramos (Homo sapiens, Ramos) it was 6.00.
The compound `Cc1ccc(C(=O)Nc2cc(N3CCOCC3)cc(N3CCOCC3)c2)cc1NC(=O)c1cncc(-c2cccs2)c1` [I-7, N-(5-((3,5-dimorpholinophenyl)carbamoyl)-2-methylphenyl)-5-(thiophen-2-yl)nicotinamide] gave a pIC50 against BTK of 5.47. The negative-log EC50 (pEC50) in the experiment on BCWM.1 (BCWM1, 72 h) was 6.74; in the experiment on MWCL-1 (72 h), 5.75; in the experiment with OCI-Ly19, 5.53; with OCI-Ly3 (Homo sapiens, OCI-Ly3, 72 h), 5.45; in the experiment with RPCIWM-1, 5.32; with Ramos (Homo sapiens, Ramos), 5.62.
At BTK, `CCN1CCN(Cc2ccc(NC(=O)c3ccc(C)c(NC(=O)c4cncc(-c5cnoc5)c4)c3)cc2C(F)(F)F)CC1` [I-8] showed a pIC50 of 7.16. Further, the IC50 (in general, the midpoint of a concentration-inhibition curve) on HCK came to 5.33 nM.
As for `CCN1CCN(Cc2ccc(NC(=O)c3ccc(C)c(NC(=O)c4cncc(-c5cnn(C)c5)c4)c3)cc2C(F)(F)F)CC1` [I-9], the pIC50 on BTK is 7.60. At HCK, the IC50 stood at 2.43 nM.
Regarding “N-(2-chloro-5-((4-((4- ethylpiperazin-1-yl)methyl)- 3-(trifluoromethyl)phenyl) carbamoyl)phenyl)-5- (thiophen-2-yl)nicotinamide [I-2]”, the pEC50 was 7.92 in the experiment on BCWM.1 (72 hours); 7.80 with MWCL-1 (72 hours); 6.79 in the experiment with OCI-Ly3 (72 hours); 6.96 in the experiment on RPCIWM-1; 7.22 in the experiment on Ramos.
